# According to patent US9289607B2, “Urgency therapy with neuromodulation and C-afferent nerve desensitization” (MEDTRONIC, INC., priority 2010, dated 2016):
# How the values were obtained:
# Format in all cases: in vivo, Sprague-Dawley rats
# [1] = Behaviour after subcutaneous capsaicin injection
# Method: (§1) Thirty-two rats were chronically treated with capsaicin or vehicle (e.g., solution without capsaicin added). Capsaicin (Sigma-Aldrich, St. Louis, Mo.) was administered to the rats in a vehicle solution containing approximately 20 milligrams (mg)/milliliters (mL) capsaicin in a mixture of approximately 10% ethanol, approximately 10% Tween 80 and approximately 80% physiological saline. For each of the rats, capsaicin (125 mg/kg) was given subcutaneously in the hindlimb in divided doses on 2 consecutive days: on the first day, a first dose of 25 mg/kg was administered, and, twelve hours later, a second dose of 50 mg/kg was administered, and on the second day, a third dose of 50 mg/kg was administered. Injections were performed under isoflurane anesthesia. Control rats received a corresponding volume of vehicles. Experiments on the effect of neurostimulation on rhythmic bladder contraction were conducted approximately 4 days after injection of the third dose was administered. To evaluate the effectiveness of capsaicin pretreatment, an eye wipe test was performed on each unanesthetized animal just before the experiment. A drop of approximately 100 microgram per milliliter (μg/mL) capsaicin solution was instilled into an eye of the animal and the number of defensive wiping movements was counted. […]
# [2] = Eye wipe test of capsaicin pretreatment effectiveness; conditions: drop of 100 μg/mL capsaicin solution in eye; rats pretreated with capsaicin 125 mg/kg s.c.; 16 rats
# Method: as §1
# [3] = system: bladder rhythmic contraction; assay: Bladder rhythmic contraction with L6 spinal nerve stimulation after capsaicin pretreatment
# Method: Female Sprague-Dawley rats weighing approximately 200-300 grams (g) were anesthetized with urethane (in particular, two injections, approximately 4 min apart, total 1.2 g urethane/kilogram (kg) rat). The anesthetized rats were maintained with a hot-water-circulating heating pad during the studies.
# To record bladder contractions, a polyethylene cannula (IntraMedic PE50 tubing, Stoelting Co., Wood Dale, Ill.), was placed into the bladder of each of the rats via the urethra and the urethra was ligated to ensure an isovolumetric bladder. The urethral cannula was connected with a T connector and linked with a low volume transducer (ADInstrument MLT0380/D, Colorado Springs, Colo.). The signal was amplified through a DC amplifier (ADInstrument, ML119, Colorado Springs, Colo.). The other end of the T connector was linked to a 20 cubic centimeters (cc) syringe with a perfusion pump.
# To deliver electrical stimulation, a wire electrode was placed under the L6 spinal nerves of each of the rats bilaterally. The dorsal skin around sacral and thoracic surface was shaved and a dorsal midline incision was made from approximately spinal nerve L3 to S2. A combination of sharp and blunt dissection was used to expose the left L6/S1 posterior interarticular process. The S1 transverse process was visualized and removed, and the L6 nerves were located caudal and medial to the sacroiliac junction and were then exposed distal to their emergence from the intervertebral foramina. Two bared portions of a teflon-coated, 40-gauge, stainless steel wire (Cooner Wire Co., Chatsworth, Calif.) were placed bilaterally under each of the L6 nerve. A silicone adhesive (Kwik-Cast, World Precision Instruments, Inc, Sarasota, Fla.) was applied to cover the wire around the nerve. The muscle and incision were closed with silk suture. The wire electrode and a needle electrode under the skin of the tail served as the stimulating cathode and the indifferent anode, respectively.
# Biphasic pulses having a pulse width of about 0.1 ms and different intensities were used to stimulate the spinal nerve at frequencies ranging from 0.01 Hz to 100 Hz. A Grass S88 stimulator (Grass Technologies, West Warwick, R.I.) with an SIU5 stimulus isolator (Grass Technologies, West Warwick, R.I.) was used to generate stimulus pulses. Electrical stimulation of spinal nerves with pulses of sufficient intensity evoked hind-toe twitches and pelvic floor muscle contractions. In each rat, the motor threshold, defined by the lowest intensity to evoke any of those muscle contractions was tested. The rats with motor threshold over 0.4 mA were excluded from the study. The intensities of stimulation were given either at 0.6 mA or threshold intensity, which was adjusted until the muscle contraction was just discernible in each animal.
# as §1, with “experiment.” for “experiment. A drop of approximately 100 microgram per milliliter (μg/mL) capsaicin solution was instilled into an eye of the animal and the number of defensive wiping movements was counted.”
# [4] = capsaicin 125 mg/kg s.c. pretreatment 4 days before, mean control before stimulation, 8 rats, mean±SEM
# [5] = capsaicin 125 mg/kg s.c. pretreatment, stimulation approximately 0.6 mA, 0.5 Hz
structure (smiles),measurement,setting,value
"COc1cc(CNC(=O)CCCC/C=C/C(C)C)ccc1O [capsaicin, Capsaicin]",aversive behaviours thereafter,"[1]; after the first 3-4 hours, capsaicin 125 mg/kg s.c. in divided doses over 2 days",no aversive behaviors were observed
same,behaviour following the first capsaicin injection,"[1]; approximately 3-4 hours after first capsaicin injection (25 mg/kg s.c., hindlimb)",signs of pain behaviors
same,reaction in the eye wipe test (defensive wiping movements),[2],no reaction
same,average amplitude of bladder contractions prior to neurostimulation,[3]; [4],approximately 19.24±1.89 mmHg
same,mean frequency of bladder contractions prior to neurostimulation,[3]; [4],approximately 3.19±0.20 contractions per 5 minutes
same,persistence of inhibition after stimulation was terminated (FIG. 12A),[3]; [5],more than 20 minutes
same,rhythmic bladder contractions during spinal nerve stimulation (FIG. 12A),[3]; [5],substantially completely inhibited
same,bladder contractions with spinal nerve stimulation at threshold intensity (FIG. 12B),"[3]; capsaicin 125 mg/kg s.c. pretreatment, threshold intensity about 0.01 mA, about 10 Hz, particularly after termination of stimulation",attenuated bladder contractions
same,frequency of the bladder rhythmic contraction,"[3]; capsaicin approximately 125 mg/kg s.c. pretreatment, stimulation approximately 0.6 mA, six rats, p<0.05 vs vehicle pretreated, two-way ANOVA (FIG. 13A)",18±14 % of control
same,"mean frequency and amplitude of bladder contractions, capsaicin-treated versus vehicle-treated rats",[3]; prior to delivery of neurostimulation,did not differ
same,effect on bladder rhythmic contraction of stimulation at threshold intensity (FIG. 13B),"[3]; threshold intensity approximately 0.01 mA, believed not statistically significant",trend of inhibitory effects
